From patent US10813920B2, “Drug for treating corneal endothelium by promoting cell proliferation or inhibiting cell damage” (THE DOSHISHA, priority 2013, dated 2020)

Key:
Format in all cases: cell-based
[1] = system: cynomolgus monkey corneal endothelial cells; experiment: BrdU ELISA, one concentration per agent, monkey corneal endothelial cells (Example 9); details: 10 μM SB203580, 1 μM Semapimod, 3 μM BIRB796, 1 μM PH-797804, 3 μM VX-702, 3 μM LY2228820, 3 μM TAK-715, * p<0.01
Protocol: The medium was removed from a culture dish culturing cynomolgus monkey corneal endothelial cells. PBS (-) heated to 37° C. in advance was added thereto and the cells were washed. This operation was repeated twice. After removing the PBS (-), 0.05% Trypsin-EDTA (NacalaiTesque, 35554-64) was added and the cells were incubated for 10 minutes at 37° C. (5% CO2). The cells were then suspended in DMEM (Nacalai Tesque, 08456-94)+10% FBS (Biowest, S1820-500)+1% penicillin/streptomycin (Nacalai Tesque, catalog number: 26252-94) and centrifuged for 3 minutes at 1200 rpm to collect the cells. A 96-well plate was treated with an FNC coating mix (50 ml ([…], catalog number: 0407). The monkey corneal endothelial cells (lot: 20120404-3L-P9) were seeded in the coated 96-well plate at a ratio of 3000 cells/well. The cells were cultured for 30 hours at 37° C. (5% CO2). After 30 hours, the medium was removed and changed to a serum free medium: DMEM+1% P/S to culture the cells for 18 hours. […] SMC20120918), BIRB796 (Doramapimod) (Selleck Chemicals, catalog number: S1574, lot number: S157402), PH-797804 (Selleck Chemicals, catalog number: S2726, lot number: 01), VX-702 (Selleck Chemicals, catalog number: S6005, lot number: 02), LY2228820 (Selleck Chemicals, catalog number: S1494, lot number: 01), and TAK-715 (Selleck Chemical, catalog number: […] DMSO was added to the control. After 24 hours, a BrdU labeling reagent (Amersham Cell Proliferation Biotrak ELISA System, Version 2, GE Healthcare, catalog number: RPN250) was further added at a ratio of 1:1000 to the DMEM+10% FBS+1% P/S medium. […] DMSO was added to the control. After 24 hours, BrdU ELISA was carried out with Amersham Cell Proliferation Biotrak ELISA System, Version 2 (GE Healthcare, catalog number: RPN250). The absorbance at 450 nm was measured.

[2] = system: human corneal endothelial cells; experiment: BrdU ELISA, one concentration per agent, human corneal endothelial cells (Example 9); details: 10 μM SB203580, 1 μM Semapimod, 3 μM BIRB796, 1 μM PH-797804, 3 μM VX-702, 3 μM LY2228820, 3 μM TAK-715, * p<0.01
Protocol: The medium was removed from a culture dish culturing human corneal endothelial cells. PBS (-) heated to 37° C. in advance was added thereto and the cells were washed. This operation was repeated twice. After removing the PBS (-) TrypLE Select (×10) (GIBCO, A12177-01) was added and the cells were incubated for 10 minutes at 37° C. (5% CO2). The cells were then suspended in Opti-MEM (GIBCO, 31985-070) and centrifuged for 3 minutes at 1200 rpm to collect the cells. A 96-well plate was treated with an FNC coating mix (50 ml ([…], catalog number: 0407). The human corneal endothelial cells (lot: C1642-P8) were seeded in a Condition Medium for humans in the coated 96-well plate at a ratio of 3000 cells/well. The cells were cultured for 30 hours at 37° C. (5% CO2). After 30 hours, the medium was removed and changed to a serum free medium: Opti-MEM+1% P/S to culture the cells for 18 hours. […] SMC20120918), BIRB796 (Doramapimod) (Selleck Chemicals, catalog number: S1574, lot number: S157402), PH-797804 (Selleck Chemicals, catalog number: S2726, lot number: 01), VX-702 (Selleck Chemicals, catalog number: S6005, lot number: 02), LY2228820 (Selleck Chemicals, catalog number: S1494, lot number: 01), and TAK-715 (Selleck Chemical, catalog number: […] DMSO was added to the control. After 24 hours, a BrdU labeling reagent (Amersham Cell Proliferation Biotrak ELISA System, Version 2, GE Healthcare, catalog number: RPN250) was further added at a ratio of 1:1000 to the DMEM+10% FBS+1% P/S medium. […] DMSO was added to the control. After 24 hours, BrdU ELISA was carried out with Amersham Cell Proliferation Biotrak ELISA System, Version 2 (GE Healthcare, catalog number: RPN250). The absorbance at 450 nm was measured.

[3] = system: cultured monkey corneal endothelial cells; experiment: UV-induced apoptosis of cultured monkey corneal endothelial cells, Annexin V and DAPI staining; details: UV 100 J/m^2, after 9 hours of culture
Protocol: 1×10^5 cultured monkey corneal endothelial cells were seeded on a 12-well plate coated with an FNC Coating Mix and cultured for about 5 days until reaching confluence under the condition of 5% CO2 at 37° C.
Each inhibitor was then added at the concentration in the above-described Table and the cells were incubated for 16 hours under the condition of 5% CO2 at 37° C. The solvent of each reagent, Dimethyl Sulfoxide, Sterile-filtered (nacalai tesque, 13408-64) MSO, was added to the Control group and the UV group. Gibco DMEM, 1% P/S (penicillin/streptomycin) was used as the medium.
The cellular supernatant was then removed and the cells were irradiated with UV (100 J/m^2). After irradiation, cells were again added to a medium containing each inhibitor and cultured for 9 hours. The cell form and apoptosis were observed under a phase difference microscope.
The cells, after 9 hours of culture, were stained for 20 minutes at 37° C. by using MEBCYTO-Apoptosis Kit (Annexin V-FITC Kit) (manufacturer: MBL, Code: 4700). The cells were then immobilized for 10 minutes with 95% acetic acid ethanol. After immobilization, the cells were stained for 30 minutes with DAPI Solution (manufacturer: DOJINDO, Code: GA098) and observed under a confocal microscope.

[4] = system: corneal endothelium; experiment: UV-induced apoptosis of corneal endothelium in rabbit sclerocornea segments, Annexin V and DAPI staining; details: rabbit corneal tissue; UV 100 J/m^2; stored 24 hours at 4° C.; 10 μM SB203580, 3 μM BIRB796, 1 μM PH-797804, 3 μM VX-702, 3 μM LY2228820, 3 μM TAK-715
Protocol: The experiment used a rabbit eye ball 0-24 hours after euthanasia. Sclerocornea was removed along the corneal limbus under a stereo microscope by using spring scissors. The crystalline lens and iris were removed to make a sclerocornea segment. […] After dividing a cornea, pretreatment was applied to the Control group for 2 hours in the dark with Optisol-GS® (Bausch & Lomb) (Lot. […] After washing the cornea twice with PBS(−), 100 J/m^2 of UV was irradiated onto the corneal endothelial cells, which were against stored for 24 hours at 4° C. […] The sclerocornea segments were washed with PBS(−), and MEBCYTO-Apoptosis kit (Annexin V-FITC kit) (MBL) (Lot. 027FA) was used for Annexin V and DAPI staining. The segments were immersed and immobilized for 30 minutes in −30° C. ice-cooled 95% ethanol. In order to remove ethanol components, PBS(−) was exchanged every 5 minutes and the segments were washed three times. An antifading agent was then added and enclosed. Annexin V and nuclei was observed by fluorescence imaging under a confocal microscope. The percentage of Annexin V positive cells were calculated in the above-described rabbit corneal tissue. *p<0.05 (Dunnett's test).

CC(C)(C)Cn1c(N)nc2ccc(-c3nc(C(C)(C)C)[nH]c3-c3ccc(F)cc3)nc21 [LY2228820, 5-(2-(tert-butyl)-5-(4-fluorophenyl)-1H-imidazole-4-yl)-3-neopentyl-3H-imidazo[4,5-b]pyridine-2-amine]
BrdU uptake as a percentage with respect to the control (proliferation) [1]: promotes proliferation
BrdU uptake as a percentage with respect to the control (proliferation) [2]: promotes proliferation
Apoptosis induced by UV (annexin V staining) [3]: suppressed
Apoptosis induced by UV (annexin V staining) [4]: suppressed

CNC(=O)c1ccc(C)c(-n2c(C)cc(OCc3ccc(F)cc3F)c(Br)c2=O)c1 [PH-797804, 3-(3-bromo-4-((2,4-difluorobenzyl)oxy)-6-methyl-2-oxopyridine-1(2H)-yl)-N,4-dimethylbenzamide]
BrdU uptake as a percentage with respect to the control (proliferation) [1]: promotes proliferation
BrdU uptake as a percentage with respect to the control (proliferation) [2]: promotes proliferation
Apoptosis induced by UV (annexin V staining) [3]: suppressed
Apoptosis induced by UV (annexin V staining) [4]: suppressed

Cc1ccc(-n2nc(C(C)(C)C)cc2NC(=O)Nc2ccc(OCCN3CCOCC3)c3ccccc23)cc1 [BIRB796, N-[3-tert-butyl-1-(4-methylphenyl)pyrazole-5-yl]-N′-[4-(2-morpholinoethoxy)-1-naphthyl]urea]
BrdU uptake as a percentage with respect to the control (proliferation) [1]: promotes proliferation
BrdU uptake as a percentage with respect to the control (proliferation) [2]: promotes proliferation
Apoptosis induced by UV (annexin V staining) [3]: suppressed
Apoptosis induced by UV (annexin V staining) [4]: suppressed

CCc1nc(-c2cccc(C)c2)c(-c2ccnc(NC(=O)c3ccccc3)c2)s1 [TAK-715, 2-benzamide-4-[2-ethyl-4-(3-methylphenyl)thiazole-5-yl]pyridine]
BrdU uptake as a percentage with respect to the control (proliferation) [1]: promotes proliferation
BrdU uptake as a percentage with respect to the control (proliferation) [2]: promotes proliferation
Apoptosis induced by UV (annexin V staining) [3]: suppressed
Apoptosis induced by UV (annexin V staining) [4]: suppressed

C[S+]([O-])c1ccc(-c2nc(-c3ccncc3)c(-c3ccc(F)cc3)[nH]2)cc1 (centres unmarked) [SB203580, 4-(4-fluorophenyl)-2-(4-methylsulfinylphenyl)-5-(4-pyridyl)-1H-imidazole]
BrdU uptake as a percentage with respect to the control (proliferation) [1]: promotes proliferation
BrdU uptake as a percentage with respect to the control (proliferation) [2]: promotes proliferation
Apoptosis induced by UV (annexin V staining) [3]: suppressed
Apoptosis induced by UV (annexin V staining) [4]: suppressed
